Experimental findings from patent publication US10662222B2, “Drug delivery enhancement agents” (The University of Bath, priority 2014, dated 2020) are described below.

Data set [1] has as its system Caco-2 cell monolayers. Description: Trans-epithelial electrical resistance (TEER) of Caco-2 monolayers after apical peptide application. The data set is classed as cell-based, human. To be noted: for Efficacy at 5 mM (TEER reduction): apical application to Caco-2 cell monolayers. Here is the method:
An immortalized human intestinal epithelial cell line (Caco-2) were maintained in DMEM/F12 medium (Gibco, Paisley, UK) supplemented with 10% FBS, 2 mM L-glutamine (Gibco) 100 U/ml penicillin and 100 μg/ml streptomycin (Gibco). Caco-2 cells were seeded at a density of 7×10^4/well on Transwell™ (Corning, N.Y.) polyester membrane filters (12 mm diameter, 0.4 μm pore size). Re-feeding with DMEM (Life Technologies, Paisley, UK) was carried out every second day. Caco-2 monolayers with trans-epithelial electrical resistance (TEER)>350 Ω·cm2 were considered confluent and used in transport assays; fixed paddle electrodes were used to measure TEER (World Precision Instruments, UK).
(§1) Apical to basal flux of 50 mg/ml 4 kDa dextran or 50 mg/ml 70 kDa dextran (Sigma) was performed to assess the impact of PIP peptides on paracellular permeability. Apical compartment volume was 200 μl; at set times the 600 μl basal compartment volume was collected and replaced with fresh HBSS. Apical and basal compartment fluorescence was determined using a Floustar Omega microplate reader (BMG Labtech, Ortenburg, Germany). TEER measurements were made for each well immediately after HBSS replacement. After 3 hr, the apical compartment dextran and peptide solution was removed and replaced with PBS and TEER values were recorded for a further 30 min to assess monolayer recovery.
(§2) TEER values were calculated by subtracting blank filter reading and normalized as a percentage of the initial TEER value for that monolayer. Fluorescent dextran flux used to calculate paracellular permeability was performed as previously described. Blood glucose levels were expressed as a percentage of the baseline glucose levels for each animal. Data were compared to control values using a two-tailed, un-paired Student's T-test.
Peptides were applied apically at a concentration of 5 mM to confluent monolayers of Caco-2 cells grown on semi-permeable inserts (Rubus et al. (1996) J. Pharma. Sci 85:165-169) to assess their ability to affect TJ function (Peterson & Mooseker (1992) J. Cell. Sci. 102(3):581-600). RRVEVKYDRR (peptide #6; peptide 640, SEQ ID NO: 3) reduced the trans-epithelial electrical resistance (TEER) of Caco-2 monolayers with a drop of 50% within 25 min of addition (FIG. 4), and none of the peptides were toxic at this concentration according to MTT assay (Mosman (1983) J. Immunol. Methods 65:55-63). Critically, following gentle washing, RRVEVKYDRR (SEQ ID NO: 3)-treated Caco-2 monolayers TEER values recovered to 80% of their original values within 24 h. A lead candidate, peptide NH2-rrdykvevrr-NH2, (SEQ ID NO: 20) was identified based on the RRVEVKYDRR (SEQ ID NO: 3) sequence but using the retro-inverso configuration with D-configuration amino acids.

In a further data set the test system is Caco-2 monolayers. Description: Apical to basal flux of fluorescent dextran (4 kDa, 70 kDa) across Caco-2 monolayers. The data set is classed as cell-based, human. The settings on record: for transport of paracellular marker 4 kDa fluorescent dextran (4FD): relative to control peptide, FIG. 5. As for the experimental part:
as §1, §2
A general note: Passage across Caco-2 layers is used to estimate intestinal permeability.

Data set [2] has as its system Caco-2 cells.
Description: (§3) MTT assay: Cell viability was assessed using the 3-(4,5-dimethylthiazol-2-yl)-2,5-diphenyl tetrazolium bromide (MTT; Invitrogen, Paisley, UK) assay. Following exposure of cells to CPP complexes for 72 hours, 0.5 mg/ml MTT was added to the culture medium and incubated with the cells for a further 3 hours. Media was then removed and replaced with DMSO to lyse the cells. Absorbance was then recorded at 550 nm.
The nature of data set [3]: Blood glucose after SC or intraluminal intestinal (ILI) injection of insulin with PIP peptides. The data set is classed as in vivo, rat. As for the experimental part: Male Wistar rats, bred in house, were 225-275 g (approximately 6-8 weeks old) when placed on study. Rats were housed in groups of 3-5 per cage in a 12/12 hr light/dark cycle. All experiments were conducted during the light phase and carried out using a non-recovery protocol that used continuous isoflurane anesthesia. A 4-5 cm midline abdominal incision was made to expose mid-jejunum to early ileum regions of the small intestine and to provide access to the portal vein for the insertion of a cannula. Solutions of insulin (human recombinant; Sigma) and PIP peptides were prepared in 0.9% saline containing 10 mM citric acid to reduce local proteolysis and mixed 1:1 before injection using a 29-gauge hypodermic needle in a volume of 200 μL/kg (or ˜50 μL, per 250 g rat). The injection site was marked with a permanent marker. The incision was closed with surgical glue. Blood draws were taken from the portal vein as well as systemic circulation over the next two hours to monitor glucose, serum insulin and endotoxin. Control treatment groups included SC injection of insulin […] as well as intestinal injection of PIP peptide without insulin or insulin alone in the phosphate buffered saline (PBS) formulation used for all groups. At the end of a study, a 3-5 mm region about the marked intestine segment was isolated. This tissue was lysed for biochemical assessment of MLC phosphorylation state or fixed, sectioned, and stained with hematoxylin/eosin prior to analysis read by a licensed veterinary pathologist. Subcutaneous (SC) insulin injections (20 μl/kg) were performed in the mid-scapular region and blood glucose was measured in the same manner. All experiments were performed in accordance with the U.K. Animals (Scientific Procedures) Act of 1986, the European Communities Council Directive of 1986 (86/609/EEC), and the University of Bath's ethical review procedures.
as §2

Data set [4] has as its system myosin light chain (MLC) phosphorylated at Ser19. Briefly: PhosphoMLC analysis (Western blot) of intestinal tissue after ILI injection. To be noted: 20 mM peptide. The data set is classed as in vivo, rat. Here is the method:
After rinsing with ice cold PBS, Caco-2 monolayers or epithelial cells from isolated intestinal tissue were lysed in 3 μL of a protease inhibitor cocktail and 200 μL RIPA buffer and left on ice for 10 min. Isolated intestinal tissue was similarly placed in ice cold PBS for 15 min prior to maceration in a protease inhibitor cocktail and RIPA buffer, being left on ice for 10 min. All cell and tissues lysates were centrifuged at 8000 rpm for 15 min to collect the supernatant, which was stored at −80° C. until use. For Western blots analysis, lysates were separated by SDS-PAGE (12%) run at 220V for 40 min and electro-transferred onto a PDVF membrane at 30V for 70 min using an XCell™ Blot module (Invitrogen). Membranes were blocked using 5% bovine serum albumin in TBS-T (2 M Tris, HCl, pH 7.5, 4 M NaCl and 0.1% Tween 20) for 1 hr. Membranes were washed with water, incubated with primary antibody (anti-myosin light chain (phospho S20) antibody or anti-myosin light chain 2) antibody overnight at 5° C., washed thrice with TBS-T, and then incubated with secondary horseradish […] (HRP)-coupled antibody for 1 hr at room temperature. After washing thrice in TBS-T, HRP activity was detected by ECL (Santa Cruz).
After rinsing with ice cold PBS to remove PIP peptide or control treatment agents, isolated intestinal tissue was placed in ice cold PBS for 15 min prior to addition of 25 μl protease inhibitor cocktail (Fisher), 25 μl phosphatase inhibitor cocktail (Fisher) and 500 μl RIPA buffer (Sigma Aldrich). After 10 min on ice lysates were centrifuged at 8000 rpm for 15 min to collect the supernatant, which was stored at −80° C. until use. For Western blots analysis, lysates were separated by SDS-PAGE (12%) run at 220V for 40 min and electro-transferred onto a PDVF membrane at 30V for 70 min using an XCell™ Blot module (Invitrogen). Membranes were blocked using 5% bovine serum albumin in TBS-T (2 M Tris HCl, pH 7.5, 4 M NaCl and 0.1% Tween 20) for 1 h. Membranes were washed with water, incubated with primary antibody (anti-myosin light chain (phospho S19) antibody (Cell Signalling Technologies) or anti-myosin light chain 2 antibody (Abcam) overnight at 5° C., washed thrice with TBS-T, and then incubated with secondary horseradish […] (HRP)-coupled antibody for 1 h at room temperature. After washing thrice in TBS-T, HRP activity was detected by ECL (Santa Cruz).
(In western blotting, separated proteins are transferred to a membrane and probed.)

For data set [5], the system named is Caco-2 cell monolayers. Briefly: Trans-epithelial electrical resistance (TEER) of Caco-2 monolayers after apical peptide application. In kind it is cell-based, human. To be noted: FIG. 6; for TEER after peptide removal: fresh media to apical compartment after 180 min exposure.
Data set [6] relates to Caco-2 cells. Description: Cell viability / cytotoxicity, MTT assay. (Tetrazolium assays rely on reduction of a dye to a coloured formazan, in cell work by metabolically active cells.)
Description: as §3

Read-outs that look alike come from different tables or passages of the source.

For “NH2-RRVpTVKYDRR-NH2 (RRVTVKYDRR; HELM PEPTIDE1{R.R.V.[C[C@@H](OP(=O)(O)O)[C@H](N[*:1])C(=O)[*:2]].V.K.Y.D.R.R.[am]}$$$$V2.0; SMILES CC(C)[C@H](NC(=O)[C@H](CCCNC(=N)N)NC(=O)[C@@H](N)CCCNC(=N)N)C(=O)N[C@H](C(=O)N[C@H](C(=O)N[C@@H](CCCCN)C(=O)N[C@@H](Cc1ccc(O)cc1)C(=O)N[C@@H](CC(=O)O)C(=O)N[C@@H](CCCNC(=N)N)C(=O)N[C@@H](CCCNC(=N)N)C(N)=O)C(C)C)[C@@H](C)OP(=O)(O)O) [peptide 2]”, in the data set with Caco-2 cell monolayers [1] (5 mM), the “Efficacy at 5 mM (TEER reduction)” value was “No”.

For “NH2-RRV TVKYDRR-NH2 (H-RRVTVKYDRR-NH2) [peptide 1]”, in the data set on Caco-2 cell monolayers [1] (5 mM), the “Efficacy at 5 mM (TEER reduction)” value was “No”.

Take “NH2-RRVpTVKYKRR-NH2 (RRVTVKYKRR; HELM PEPTIDE1{R.R.V.[C[C@@H](OP(=O)(O)O)[C@H](N[*:1])C(=O)[*:2]].V.K.Y.K.R.R.[am]}$$$$V2.0; SMILES CC(C)[C@H](NC(=O)[C@H](CCCNC(=N)N)NC(=O)[C@@H](N)CCCNC(=N)N)C(=O)N[C@H](C(=O)N[C@H](C(=O)N[C@@H](CCCCN)C(=O)N[C@@H](Cc1ccc(O)cc1)C(=O)N[C@@H](CCCCN)C(=O)N[C@@H](CCCNC(=N)N)C(=O)N[C@@H](CCCNC(=N)N)C(N)=O)C(C)C)[C@@H](C)OP(=O)(O)O) [compound 4]”: the “Efficacy at 5 mM (TEER reduction)” value in the data set on Caco-2 cell monolayers [1] (5 mM) was “No”.

As for NH2-RRV EVKYDRR-NH2 [peptide 640], in the data set on Caco-2 monolayers (5 mM), the “permeability of 4 kDa dextran” value is recorded as “failed to affect”. In the data set on Caco-2 monolayers (5 mM), the “transport of paracellular marker 4 kDa fluorescent dextran (4FD)” value is recorded as “increased transport of a paracellular marker relative to the control”. For the same substance, the “increase of rate of 4 kDa dextran permeation” value in the data set with Caco-2 monolayers (10 mM apical) is given as around 3 fold. Also, in the data set with Caco-2 monolayers (concentration not given), the “flux of 70 kDa dextran” value is recorded as “failed to affect”. Besides, the “cell viability (mitochondrial membrane polarity marker MTS)” value in the data set with Caco-2 cells [2] is recorded as “did not affect cell viability”. Besides, in the data set on Caco-2 cell monolayers [1] (5 mM apical, within 25 min of addition), the “drop of TEER” value amounted to 50%. Further, the “Efficacy at 5 mM (TEER reduction)” value with Caco-2 cell monolayers [1] (5 mM) was “Yes”. In the data set with Caco-2 cell monolayers [1] (5 mM, FIG. 5), the “TEER decrease to % of its initial value” is reported as around 50%. In addition, the “loss in TEER” value in the data set on Caco-2 cell monolayers [1] (5 mM, after 180 min of exposure) is around 50%. For the same substance, the “TEER recovery, % of original values” in the data set on Caco-2 cell monolayers [1] (after gentle washing, within 24 h) was 80%. For the same substance, the “blood glucose change profile” value in data set [3] (ILI of 30 IU/kg insulin plus 10 mM peptide) is reported as “much delayed decrease”. For the same substance, the “MLC phosphorylation ratio (MLC to pMLC)” value in data set [4] (15 min) is “significantly increased”; in data set [4] (45 min) it was “remained elevated”; in data set [4] (90 min), “returning to initial levels”. Also, the “TEER after peptide removal” value in the data set on Caco-2 cell monolayers [5] is “rapid reversal of TEER depression”.

Take “RKAKYQYRRK (drug delivery enhancement peptide) [peptide 250]”: in the data set with Caco-2 monolayers (5 mM), the “transport of paracellular marker 4 kDa fluorescent dextran (4FD)” value was “increased transport of a paracellular marker relative to the control”. In addition, the “4 kDa dextran flux rates, comparison” value in the data set on Caco-2 monolayers (10 mM) is on record as 10 mM peptide 640 was equal to 10 mM peptide 250. In the data set with Caco-2 monolayers (20 mM), the “4 kDa dextran flux rate compared to control” value was around 6 fold. Moreover, in the data set with Caco-2 monolayers (20 mM), the “increase of 70 kDa dextran flux” value is around 3 fold. The “cell viability (mitochondrial membrane polarity marker MTS)” value with Caco-2 cells [6] (concentrations that modulated TEER and paracellular permeability) is recorded as “did not affect cell viability”. The “cytotoxicity using the MTT assay” value with Caco-2 cells [6] (data not shown) is “lack of cytotoxicity”. Further, in the data set on Caco-2 cell monolayers [1] (5 mM, FIG. 5), the “TEER change compared with peptide 640” value is “slower and less pronounced drop in TEER”. Also, in data set [3] (ILI of 30 IU/kg insulin plus 10 mM peptide, by 90 min), the blood sugar recovery was 70-80%. Further, the “drop in blood glucose” value in data set [3] (ILI of 30 IU/kg insulin plus 20 mM peptide, by 30 min, remained for the remainder of the experiment) is listed as 40%. For the same substance, the “MLC phosphorylation ratio (MLC to pMLC)” value in data set [4] (15 min) is “no significant changes”; in data set [4] (45 min), “elevated”; in data set [4] (90 min) it was “returning to basal levels”. Moreover, the TEER response entry with Caco-2 cell monolayers [5] (20 mM peptide 250 versus 10 mM peptide 640) was “very comparable response to 10 mM peptide 640”. For the same substance, in the data set with Caco-2 cell monolayers [5], the “TEER after peptide removal” value is recorded as “rapid reversal of TEER depression”.

As for “NH2-RRK TVKYDRR-NH2 (H-RRKTVKYDRR-NH2) [compound 5]”, the “Efficacy at 5 mM (TEER reduction)” value in the data set with Caco-2 cell monolayers [1] (5 mM) was “No”.

As for insulin, the “decrease in blood glucose” value in data set [3] (SC injection of 3 IU/kg insulin) was around 50%. In addition, in data set [3] (SC injection of insulin), the “time at which blood glucose began to recover” value is around 90 min and the “time of blood glucose nadir” value is listed as around 30 min. Moreover, the “effect on blood sugar” value in data set [3] (intraluminal injection of 30 IU/kg insulin alone) is “no effect”.

Consider “NH2-RRV TVKYKRR-NH2 (H-RRVTVKYKRR-NH2) [compound 3]”, for which the “Efficacy at 5 mM (TEER reduction)” value in the data set with Caco-2 cell monolayers [1] (5 mM) is recorded as “No”.
